# Assay results from patent US9114149B2, “[CU(thp)4]n[X]-n compounds for the treatment of a broad range of human solid tumors, including refractory tumors” (Universita Degli Studi Di Padova, priority 2011, dated 2015).
# Several values for one entry are separate records, joined by “and”; a condition that tells them apart may be missing. Equal entries are not always repeated.
# Columns and labels:
# U1810 = assay: MTT cytotoxicity, U1810 (lung); assay type: cell-based, human; conditions: MTT test, 72 hrs
# From the text: (§1) The in vitro antitumor activity of CP had been deeply evaluated in several human cancer cell lines by in vitro cytotoxicity assays. CP cytotoxicity has been detected in a large panel of human cell lines derived from a wide variety of solid tumors, including refractory tumors. In Table 1, the cytotoxicity parameters IC50 (that is the median growth inhibitory concentrations calculated from dose-survival curves via MTT test) are tabulated.
# (§2) Cell lines representative of lung (H157, U1810, U1285, Calu-1), pancreas (MIA PaCa-2, BxPC-3, AsPC-1, Capan-1), liver (Huh-7, Hep 3B, SK-Hep-1), oesophagus (OE33, OE21), oesophagus/gastric cardia (OE19), stomach (BGC-823, AGS), colon (HCT-116, T84, COLO 205), breast (MDA-MB-231, SK-BR-3), cervix (CaSki, C-33 A) ovarian (A2780, SK-OV-3, IGROV1), prostate (LnCaP, PC-3) cancers along with melanoma (MEWO, G361, C-32), neuroblastoma (SH-SY5Y, SK-N-AS, IMR-32) and osteosarcoma (U-2 OS, MG-63) have been treated with increasing concentration of CP for 72 hrs.
# U1285 = assay: MTT cytotoxicity, U1285 (lung); assay type: cell-based, human; conditions: MTT test, 72 hrs
# From the text: as §1, §2
# MIA PaCa-2 = assay: MTT cytotoxicity, MIA PaCa-2 (pancreas); assay type: cell-based, human; conditions: MTT test, 72 hrs
# From the text: as §1, §2
# BxPC-3 = assay: MTT cytotoxicity, BxPC-3 (pancreas); assay type: cell-based, human; conditions: MTT test, 72 hrs
# From the text: as §1, §2
# AsPC-1 = assay: MTT cytotoxicity, AsPC-1 (pancreas); assay type: cell-based, human; conditions: MTT test, 72 hrs
# From the text: as §1, §2
# Capan-1 = assay: MTT cytotoxicity, Capan-1 (pancreas); assay type: cell-based, human; conditions: MTT test, 72 hrs
# From the text: as §1, §2
# Huh-7 = assay: MTT cytotoxicity, Huh-7 (liver); assay type: cell-based, human; conditions: MTT test, 72 hrs
# From the text: as §1, §2
# Hep 3B = assay: MTT cytotoxicity, Hep 3B (liver); assay type: cell-based, human; conditions: MTT test, 72 hrs
# From the text: as §1, §2
# SK-Hep-1 = assay: MTT cytotoxicity, SK-Hep-1 (liver); assay type: cell-based, human; conditions: MTT test, 72 hrs
# From the text: as §1, §2
# OE33 = assay: MTT cytotoxicity, OE33 (oesophagus); assay type: cell-based, human; conditions: MTT test, 72 hrs
# From the text: as §1, §2
# OE21 = assay: MTT cytotoxicity, OE21 (oesophagus); assay type: cell-based, human; conditions: MTT test, 72 hrs
# From the text: as §1, §2
# OE19 = assay: MTT cytotoxicity, OE19 (oesophagus/gastric cardia); assay type: cell-based, human; conditions: MTT test, 72 hrs
# From the text: as §1, §2
# BGC-823 = assay: MTT cytotoxicity, BGC-823 (stomach); assay type: cell-based, human; conditions: MTT test, 72 hrs
# From the text: as §1, §2
# AGS = assay: MTT cytotoxicity, AGS (stomach); assay type: cell-based, human; conditions: MTT test, 72 hrs
# From the text: as §1, §2
# HCT-116 = assay: MTT cytotoxicity, HCT-116 (colon); assay type: cell-based, human; conditions: MTT test, 72 hrs
# From the text: as §1, §2
# T84 = assay: MTT cytotoxicity, T84 (colon); assay type: cell-based, human; conditions: MTT test, 72 hrs
# From the text: as §1, §2
# COLO 205 = assay: MTT cytotoxicity, COLO 205 (colon); assay type: cell-based, human; conditions: MTT test, 72 hrs
# From the text: as §1, §2
# SK-N-AS = assay: MTT cytotoxicity, SK-N-AS (brain); assay type: cell-based, human; conditions: MTT test, 72 hrs
# IMR-32 = assay: MTT cytotoxicity, IMR-32 (brain); assay type: cell-based, human; conditions: MTT test, 72 hrs
# G361 = assay: MTT cytotoxicity, G361 (skin); assay type: cell-based, human; conditions: MTT test, 72 hrs
# From the text: as §1, §2
# C-32 = assay: MTT cytotoxicity, C-32 (skin); assay type: cell-based, human; conditions: MTT test, 72 hrs
# From the text: as §1, §2
# U-2 OS = assay: MTT cytotoxicity, U-2 OS (bone); assay type: cell-based, human; conditions: MTT test, 72 hrs
# From the text: as §1, §2
# MG-63 = assay: MTT cytotoxicity, MG-63 (bone); assay type: cell-based, human; conditions: MTT test, 72 hrs
# From the text: as §1, §2
# MDA-MB-231 = assay: MTT cytotoxicity, MDA-MB-231 (breast); assay type: cell-based, human; conditions: MTT test, 72 hrs
# From the text: as §1, §2
# SK-BR-3 = assay: MTT cytotoxicity, SK-BR-3 (breast); assay type: cell-based, human; conditions: MTT test, 72 hrs
# From the text: as §1, §2
# C-33 A = assay: MTT cytotoxicity, C-33 A (cervix); assay type: cell-based, human; conditions: MTT test, 72 hrs
# From the text: as §1, §2
# SK-OV-3 = assay: MTT cytotoxicity, SK-OV-3 (ovary); assay type: cell-based, human; conditions: MTT test, 72 hrs
# From the text: as §1, §2
# IGROV1 = assay: MTT cytotoxicity, IGROV1 (ovary); assay type: cell-based, human; conditions: MTT test, 72 hrs
# From the text: as §1, §2
# LNCap = assay: MTT cytotoxicity, LNCap (prostate); assay type: cell-based, human; conditions: MTT test, 72 hrs
# From the text: as §1, §2
# PC-3 = assay: MTT cytotoxicity, PC-3 (prostate); assay type: cell-based, human; conditions: MTT test, 72 hrs
# From the text: as §1, §2
# [1] = tested on: human ovarian adenocarcinoma cells sensitive (A2780); assay: Cross resistance MTT test, A2780 (CDDP sensitive); assay type: cell-based; conditions: 72 h, probit analysis
# [2] = tested on: human osteosarcoma cells sensitive (U-2 OS); assay: Cross resistance MTT test, U-2 OS (CDDP sensitive); assay type: cell-based; conditions: 72 h, probit analysis
# [3] = tested on: human osteosarcoma cells resistant (U-2 OS/Pt) to CDDP; assay: Cross resistance MTT test, U-2 OS Pt (CDDP resistant); assay type: cell-based; conditions: for IC50: U-2 OS Pt (CDDP resistant), MTT test, 72 h, probit analysis
# [4] = tested on: human lung (MRC-5) fibroblasts; assay: Cytotoxicity towards human non-tumor cells, MRC-5; assay type: cell-based; conditions: MRC-5 human lung fibroblasts (non-tumor); MTT test, 72 hrs
# [5] = tested on: human foreskin (HFFF2) fibroblasts; assay: Cytotoxicity towards human non-tumor cells, HFFF2; assay type: cell-based; conditions: MTT test, 72 hrs
# [6] = tested on: Lewis lung carcinoma (LLC); assay: Advanced-stage treatment (2) of LLC-bearing mice; assay type: in vivo, C57BL mice; conditions: advanced-stage (2); for Average tumor weight (mean ± S.D.): day 15; for Inhibition of tumor growth: day 15, referred to control
# Description: Body weight was measured at day 1 and every two days from day 9 and was taken as a parameter of systemic toxicity. The X axis indicates the days after transplantation whereas the Y axis indicates the percentage of body weight changes. […] The error bars indicate the SD.
# The complete disappearance of primary tumors in these mice was confirmed by dissection on day 15.
# The in vivo antitumor activity of CP in LLC tumor model has been further investigated by means of other protocols, such as advanced-stage treatment (1), and advanced-stage treatment (2). For upstaged or advanced stage disease, LLC tumors were allowed to establish and grow to visible (advanced-stage treatment 1) and palpable (advanced-stage treatment 2) size before the start of chemotherapy. The results shown in Table 8 and 9, attested that CP was efficacious even at the lowest dose schedules.
# C57BL mice = assay: Maximum Tolerated Dose in C57BL mice; conditions: single ip administration, <20% weight loss and no animal death
# [7] = 50 mg/kg ip days 9-11 then 30 mg/kg days 12-14
smiles,measurement,setting,value
"N.N.[Cl][Pt][Cl] [CDDP, cis-diamminodichloro platinum(II)]",IC50,U1810,3240 ± 1920 nM
same,IC50,U1285,4370 ± 1060 nM
same,IC50,MIA PaCa-2,25900 ± 2750 nM
same,IC50,BxPC-3,11500 ± 2510 nM
same,IC50,AsPC-1,29500 ± 1570 nM
same,IC50,Capan-1,9810 ± 1380 nM
same,IC50,Huh-7,3240 ± 960 nM
same,IC50,Hep 3B,6150 ± 1480 nM
same,IC50,SK-Hep-1,27100 ± 2940 nM
same,IC50,OE33,6870 ± 1060 nM
same,IC50,OE21,3760 ± 1080 nM
same,IC50,OE19,7450 ± 1370 nM
same,IC50,BGC-823,3210 ± 1000 nM
same,IC50,AGS,6330 ± 1790 nM
same,IC50,HCT-116,8260 ± 1110 nM
same,IC50,T84,7670 ± 1340 nM
same,IC50,COLO 205,33100 ± 2680 nM
same,IC50,SK-N-AS,18100 ± 1580 nM
same,IC50,IMR-32,4450 ± 980 nM
same,IC50,G361,1320 ± 1010 nM
same,IC50,C-32,1060 ± 980 nM
same,IC50,U-2 OS,5150 ± 1940 nM
same,IC50,MG-63,5760 ± 1010 nM
same,IC50,MDA-MB-231,3230 ± 1560 nM
same,IC50,SK-BR-3,5120 ± 1510 nM
same,IC50,C-33 A,7420 ± 1980 nM
same,IC50,SK-OV-3,3040 ± 950 nM
same,IC50,IGROV1,6010 ± 1730 nM
same,IC50,LNCap,1080 ± 1010 nM
same,IC50,PC-3,1570 ± 1130 nM
same,IC50,[1],2430 ± 1600 nM
same,IC50,[2],5900 ± 1400 nM
same,R.F. (Resistant factor),[3]; IC50 resistant/parent line: U-2 OS Pt / U-2 OS,2.5
same,IC50,[3],14600 ± 1300 nM
same,IC50,[4],19200 ± 1350 nM
same,IC50,[5],20800 ± 2330 nM
same,Average tumor weight (mean ± S.D.),[6]; 1.5 mg/kg ip daily from day 9,0.118 ± 0.10 g
same,Inhibition of tumor growth,"[6]; 1.5 mg/kg ip daily from day 9, 1.5 mg/kg",72% and 72.68%
same,MTD (Maximum Tolerated Dose),C57BL mice,4.8 mg/kg
"F[P-](F)(F)(F)(F)F.OC[P+](CO)(CO)[Cu-3]([P+](CO)(CO)CO)([P+](CO)(CO)CO)[P+](CO)(CO)CO [CP, [Cu(thp)4][PF6]]",IC50,U1810,760 ± 1020 nM
same,IC50,U1285,870 ± 510 nM
same,IC50,MIA PaCa-2,2450 ± 970 nM
same,IC50,BxPC-3,1340 ± 1110 nM
same,IC50,AsPC-1,1550 ± 730 nM
same,IC50,Capan-1,2430 ± 840 nM
same,IC50,Huh-7,760 ± 310 nM
same,IC50,Hep 3B,670 ± 470 nM
same,IC50,SK-Hep-1,860 ± 750 nM
same,IC50,OE33,1870 ± 590 nM
same,IC50,OE21,1190 ± 720 nM
same,IC50,OE19,1660 ± 940 nM
same,IC50,BGC-823,1080 ± 660 nM
same,IC50,AGS,1140 ± 780 nM
same,IC50,HCT-116,460 ± 70 nM
same,IC50,T84,240 ± 40 nM
same,IC50,COLO 205,650 ± 30 nM
same,IC50,SK-N-AS,940 ± 750 nM
same,IC50,IMR-32,720 ± 180 nM
same,IC50,G361,980 ± 120 nM
same,IC50,C-32,560 ± 430 nM
same,IC50,U-2 OS,1340 ± 920 nM
same,IC50,MG-63,1430 ± 740 nM
same,IC50,MDA-MB-231,2110 ± 1230 nM
same,IC50,SK-BR-3,1890 ± 990 nM
same,IC50,C-33 A,3260 ± 1570 nM
same,IC50,SK-OV-3,880 ± 430 nM
same,IC50,IGROV1,910 ± 940 nM
same,IC50,LNCap,650 ± 870 nM
same,IC50,PC-3,980 ± 970 nM
same,IC50,[1],1800 ± 400 nM
same,IC50,[2],3100 ± 1100 nM
same,IC50,[3],4300 ± 1100 nM
same,IC50,[4],33000 ± 1760 nM
same,IC50,[5],31100 ± 3480 nM
same,Average tumor weight (mean ± S.D.),[6]; [7],0.024 ± 0.03 g
same,Inhibition of tumor growth,[6]; [7],94.44%
same,tumor regression (in words),"[6]; 50 mg/kg loading then 30 mg/kg maintenance, after the sixth administration",quite complete tumor regression
same,MTD (Maximum Tolerated Dose),C57BL mice,25.6 mg/kg
